Entries after “also recorded” stand apart in the source; their conditions may differ.
Assays:
Format in all cases: cell-based, human
A38Lg compared to A38Per = assay: MTT cell viability assay
Protocol: (§1) Tissue samples and cell lines were previously collected from PDAC patients by rapid autopsy, sequenced-validated, and monitored for mycoplasma as previously described. Low passage (2-17) rapid autopsy cell lines were cultured at 37° C. in DMEM with 10% fetal bovine serum (FBS, Gibco). For MTT assays, 15,000 cells/well were plated into 96 well plates in triplicate, treated 12 hours later, and assayed after 24 hr (glucose responses) or 6 days (chemotherapy) with CellTiter96 (Promega). For glucose response assays, nutrient-deplete DMEM (no glucose, glutamine, pyruvate, or serum) was used with addition of glucose as indicated. For glucose-dependent oxidative stress analysis, cells plated in triplicate and grown to 80% confluence followed by incubation in nutrient-deplete DMEM containing 10% dialyzed FBS with or without 10 mM glucose and 1 mM H2O2 for 24 hours. Cells were then washed with PBS, trypsinized, and viable cells counted with a hemocytometer. Glucose uptake and lactate secretion were measured with a YSI 7100 Bioanalyzer as described in the supplementary methods. For ^13C-1,2 glucose tracing and steady state metabolite profiling, the Q Exactive MS (QE-MS; Thermo Scientific) coupled to liquid chromatography (LC Ultimate 3000 UHPLC) was used for metabolite separation and detection as previously described. Detailed conditions are provided in the supplementary methods.

normal HPDE cells = assay: Glucose-dependent oxidative stress analysis (viable cell counts), HPDE; conditions: 1 mM H2O2, 24h, with or without 10 mM glucose
Protocol: as §1

[1] = tested on: local-regional PDAC samples; assay: Glucose-dependent oxidative stress analysis (viable cell counts), local-regional PDAC; conditions: 1 mM H2O2, 24h, with or without 10 mM glucose
Protocol: as §1

[2] = tested on: distant metastatic subclones; assay: Glucose-dependent oxidative stress analysis (viable cell counts), distant metastatic subclones; conditions: 1 mM H2O2, 24h, glucose not present in the media
Protocol: as §1

[3] = tested on: global chromatin modifications in peritoneal subclone (A38Per), normal cells (HPDE, fibroblast) and local-regional PDACs; assay: Western blots of histone modifications, peritoneal subclone, normal cells and local-regional PDACs; conditions: peritoneal subclone
Protocol: Histones were acid extracted as described and western blots performed on 3.5 ug histones, which were checked by Ponceau stains prior to western blot to ensure equal loading. Densitometry was performed with ImageJ software. RNA was extracted with Trizol reagent (Life Technologies) and isopropanol precipitated. Genomic DNA was purified with MasterPure DNA extraction reagents (Epicenter). Immunohistochemistry, H&E staining, and immunofluorescence on formalin-fixed, paraffin-embedded (FFPE) tissue microarray sections (TMAs) were performed according to standard procedures.
RNAi experiments were performed with siRNA transfections (Oligofectamine, Life Technologies) using negative control siRNA (Sigma, SIC001) and pre-designed siRNA oligonucleotides against indicated genes in parallel (Sigma, PGD: SASI_Hs02 00334150, CDH2: SASI_Hs01_00153995, TOP2B: SASI_Hs02_00311874). siRNAs against mutant KRAS^G12V (CUACGCCAACAGCUCCAAC) (SEQ ID NO:1) were custom designed. Cells were incubated with siRNAs for 4 days after transfection and harvested. For drug treatments in 2-D, cells were grown to 70-80% confluency and treated for 3 days with 250 uM 6AN or DMSO negative control.

OO [H2O2]
cell viability (MTT) under H2O2-mediated oxidative stress (A38Lg compared to A38Per): highly resistant; also recorded: remarkably resistant | normalized cell counts after H2O2 (normal HPDE cells): sensitive to H2O2 under either glucose condition | normalized cell counts after H2O2 [1]: resistant to H2O2 irrespective of glucose availability | normalized cell counts after H2O2 [2]: sensitive to H2O2 when glucose was not present

Nc1ccn([C@@H]2O[C@H](CO)[C@@H](O)C2(F)F)c(=O)n1 [gemcitabine, Gemcitabine]
cell viability (MTT) under gemcitabine (A38Lg compared to A38Per; assayed after 6 days): highly resistant; also recorded: completely resistant | induction of loss of methylation or gain of acetylation (reprogrammed histone modifications) by chemotherapy [3]: did not induce

Source: patent publication US11795510B2, “Identification of epigenomic reprogramming in cancer and uses thereof” (The Johns Hopkins University, priority 2016, dated 2023)
